Assay results published in the kinase profiling compilation of Christmann-Franck et al. (2016).

Key:
Experiment in all cases: KINOMEscan competition binding
Conditions in all cases: compound 10.0 µM
ABL2 (human) = ABL2 (human) (UniProt P42684)
ACVR2A (human) = ACVR2A (human) (UniProt P27037)
ALK (human) = ALK (human) (UniProt Q9UM73)
CAMKK1 (human) = CAMKK1 (human) (UniProt Q8N5S9)
CDK17 (human) = CDK17 (human) (UniProt Q00537)
CDK18 (human) = CDK18 (human) (UniProt Q07002)
CLK3 (human) = CLK3 (human) (UniProt P49761)
CSF1R (human) = CSF1R (human) (UniProt P07333)
EPHA2 (human) = EPHA2 (human) (UniProt P29317)
EPHA6 (human) = EPHA6 (human) (UniProt Q9UF33)
ERBB2 (human) = ERBB2 (human) (UniProt P04626)
ERN1 (human) = ERN1 (human) (UniProt O75460)
FES (human) = FES (human) (UniProt P07332)
LRRK2 (human) = LRRK2 (human) (UniProt Q5S007)
MAP2K1 (human) = MAP2K1 (human) (UniProt Q02750)
MAP2K4 (human) = MAP2K4 (human) (UniProt P45985)
MAP3K11 (human) = MAP3K11 (human) (UniProt Q16584)
MAP3K3 (human) = MAP3K3 (human) (UniProt Q99759)
MAP3K6 (human) = MAP3K6 (human) (UniProt O95382)
MELK (human) = MELK (human) (UniProt Q14680)
MST4 (human) = MST4 (human) (UniProt Q9P289)
MYLK3 (human) = MYLK3 (human) (UniProt Q32MK0)
NEK6 (human) = NEK6 (human) (UniProt Q9HC98)
NTRK1 (human) = NTRK1 (human) (UniProt P04629)
NTRK2 (human) = NTRK2 (human) (UniProt Q16620)
NUAK1 (human) = NUAK1 (human) (UniProt O60285)
NUAK2 (human) = NUAK2 (human) (UniProt Q9H093)
PKMYT1 (human) = PKMYT1 (human) (UniProt Q99640)
PKN3 (M.tuberculosis) = PKN3 (M.tuberculosis) (UniProt Q6P5Z2)
PRKCI (human) = PRKCI (human) (UniProt P41743)
PTK6 (human) = PTK6 (human) (UniProt Q13882)
RPS6KA1 KD1 (human) = RPS6KA1 KD1 (human) (UniProt Q15418)
RPS6KA4 KD1 (human) = RPS6KA4 KD1 (human) (UniProt O75676)
STK10 (human) = STK10 (human) (UniProt O94804)
TGFBR2 (human) = TGFBR2 (human) (UniProt P37173)
TNIK (human) = TNIK (human) (UniProt Q9UKE5)
[1] = target: TYK2 JH1 catalytic (human) (UniProt P29597)
WEE1 (human) = WEE1 (human) (UniProt P30291)
YES1 (human) = YES1 (human) (UniProt P07947)
[2] = test system: EGFR (human), P00533 [L858R]

PKMYT1 (human), sequence (Q99640 whole entry, looked up): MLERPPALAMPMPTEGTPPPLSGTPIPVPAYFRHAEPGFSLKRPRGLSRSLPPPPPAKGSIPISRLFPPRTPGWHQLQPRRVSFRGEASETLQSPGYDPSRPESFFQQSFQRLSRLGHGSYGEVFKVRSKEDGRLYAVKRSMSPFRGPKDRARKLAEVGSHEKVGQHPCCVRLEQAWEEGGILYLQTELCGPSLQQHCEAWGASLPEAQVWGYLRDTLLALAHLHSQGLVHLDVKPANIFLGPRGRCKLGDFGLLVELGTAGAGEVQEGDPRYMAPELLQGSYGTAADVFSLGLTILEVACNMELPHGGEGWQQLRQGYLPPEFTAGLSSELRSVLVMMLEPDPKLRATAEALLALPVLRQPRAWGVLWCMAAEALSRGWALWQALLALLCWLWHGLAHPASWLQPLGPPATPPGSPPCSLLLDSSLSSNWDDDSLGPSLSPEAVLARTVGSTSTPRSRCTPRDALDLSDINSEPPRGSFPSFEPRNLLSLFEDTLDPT
EPHA6 (human), sequence (Q9UF33 whole entry, looked up): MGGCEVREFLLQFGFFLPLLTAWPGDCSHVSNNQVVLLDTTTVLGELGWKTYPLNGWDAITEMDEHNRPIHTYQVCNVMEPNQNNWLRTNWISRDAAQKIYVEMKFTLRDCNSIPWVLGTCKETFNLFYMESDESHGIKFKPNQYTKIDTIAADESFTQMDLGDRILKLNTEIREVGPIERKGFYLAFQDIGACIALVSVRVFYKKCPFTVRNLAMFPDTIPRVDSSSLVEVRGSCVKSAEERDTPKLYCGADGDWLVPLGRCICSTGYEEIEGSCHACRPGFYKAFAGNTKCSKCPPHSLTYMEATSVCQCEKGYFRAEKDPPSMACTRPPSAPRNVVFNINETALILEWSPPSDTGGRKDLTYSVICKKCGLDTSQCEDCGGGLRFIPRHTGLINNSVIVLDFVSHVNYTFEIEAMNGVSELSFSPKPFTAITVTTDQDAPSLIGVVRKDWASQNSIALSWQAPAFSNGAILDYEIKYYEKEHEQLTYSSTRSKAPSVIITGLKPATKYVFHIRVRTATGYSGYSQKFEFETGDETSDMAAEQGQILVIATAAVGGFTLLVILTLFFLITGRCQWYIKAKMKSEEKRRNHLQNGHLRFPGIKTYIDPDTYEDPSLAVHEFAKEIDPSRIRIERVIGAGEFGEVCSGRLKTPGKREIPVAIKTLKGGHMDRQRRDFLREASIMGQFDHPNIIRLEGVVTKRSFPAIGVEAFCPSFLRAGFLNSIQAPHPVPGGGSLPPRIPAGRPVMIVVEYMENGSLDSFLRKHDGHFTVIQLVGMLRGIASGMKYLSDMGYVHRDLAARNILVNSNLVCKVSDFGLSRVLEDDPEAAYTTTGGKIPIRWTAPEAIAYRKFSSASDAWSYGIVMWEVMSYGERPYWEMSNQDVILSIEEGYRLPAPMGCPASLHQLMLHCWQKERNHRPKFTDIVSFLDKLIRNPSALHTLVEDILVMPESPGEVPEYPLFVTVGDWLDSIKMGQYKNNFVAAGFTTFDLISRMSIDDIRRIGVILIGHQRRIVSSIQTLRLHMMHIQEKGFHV
NTRK2 (human), sequence (Q16620 whole entry, looked up): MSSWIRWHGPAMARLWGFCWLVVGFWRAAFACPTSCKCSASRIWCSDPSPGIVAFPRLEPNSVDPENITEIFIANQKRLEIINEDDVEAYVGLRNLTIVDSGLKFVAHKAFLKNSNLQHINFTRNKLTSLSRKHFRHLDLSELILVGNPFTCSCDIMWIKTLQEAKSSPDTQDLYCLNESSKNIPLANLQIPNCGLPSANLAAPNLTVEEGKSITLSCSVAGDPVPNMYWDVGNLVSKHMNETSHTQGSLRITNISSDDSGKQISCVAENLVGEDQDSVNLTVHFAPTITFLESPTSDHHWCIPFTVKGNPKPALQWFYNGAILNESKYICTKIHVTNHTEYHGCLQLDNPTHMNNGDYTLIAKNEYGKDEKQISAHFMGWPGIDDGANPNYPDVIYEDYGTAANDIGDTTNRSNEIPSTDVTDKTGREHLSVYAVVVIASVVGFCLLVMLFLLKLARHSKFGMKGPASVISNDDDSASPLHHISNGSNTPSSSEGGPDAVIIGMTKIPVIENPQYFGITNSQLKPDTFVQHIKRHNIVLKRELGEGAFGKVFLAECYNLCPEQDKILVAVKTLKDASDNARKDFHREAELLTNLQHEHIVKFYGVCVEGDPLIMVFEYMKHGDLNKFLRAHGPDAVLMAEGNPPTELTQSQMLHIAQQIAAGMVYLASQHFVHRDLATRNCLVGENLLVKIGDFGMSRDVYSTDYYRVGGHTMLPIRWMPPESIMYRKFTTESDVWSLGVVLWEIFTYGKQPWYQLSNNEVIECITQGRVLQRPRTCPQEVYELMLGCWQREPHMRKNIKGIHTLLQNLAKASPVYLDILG
MAP3K11 (human), sequence (Q16584 whole entry, looked up): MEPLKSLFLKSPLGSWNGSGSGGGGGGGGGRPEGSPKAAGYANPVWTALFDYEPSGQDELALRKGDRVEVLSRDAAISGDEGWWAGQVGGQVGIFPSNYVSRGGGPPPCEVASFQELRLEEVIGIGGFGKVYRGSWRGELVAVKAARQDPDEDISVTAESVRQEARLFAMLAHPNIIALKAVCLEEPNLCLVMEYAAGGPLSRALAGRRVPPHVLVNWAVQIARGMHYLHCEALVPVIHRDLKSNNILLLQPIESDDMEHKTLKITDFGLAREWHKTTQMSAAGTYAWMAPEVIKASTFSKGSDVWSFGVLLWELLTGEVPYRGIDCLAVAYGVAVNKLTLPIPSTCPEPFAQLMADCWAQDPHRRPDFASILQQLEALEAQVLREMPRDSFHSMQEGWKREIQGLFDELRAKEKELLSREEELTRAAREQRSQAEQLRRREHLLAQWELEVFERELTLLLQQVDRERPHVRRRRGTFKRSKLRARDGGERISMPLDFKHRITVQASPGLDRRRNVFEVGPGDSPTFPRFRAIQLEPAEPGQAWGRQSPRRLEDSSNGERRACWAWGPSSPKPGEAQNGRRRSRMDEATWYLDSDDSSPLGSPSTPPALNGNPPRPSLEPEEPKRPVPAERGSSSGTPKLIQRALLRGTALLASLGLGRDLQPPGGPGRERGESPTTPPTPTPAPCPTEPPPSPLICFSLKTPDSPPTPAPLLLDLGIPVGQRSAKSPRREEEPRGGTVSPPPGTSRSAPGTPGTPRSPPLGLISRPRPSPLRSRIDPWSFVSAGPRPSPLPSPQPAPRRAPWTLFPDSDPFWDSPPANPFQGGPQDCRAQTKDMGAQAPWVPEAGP
TGFBR2 (human), sequence (P37173 whole entry, looked up): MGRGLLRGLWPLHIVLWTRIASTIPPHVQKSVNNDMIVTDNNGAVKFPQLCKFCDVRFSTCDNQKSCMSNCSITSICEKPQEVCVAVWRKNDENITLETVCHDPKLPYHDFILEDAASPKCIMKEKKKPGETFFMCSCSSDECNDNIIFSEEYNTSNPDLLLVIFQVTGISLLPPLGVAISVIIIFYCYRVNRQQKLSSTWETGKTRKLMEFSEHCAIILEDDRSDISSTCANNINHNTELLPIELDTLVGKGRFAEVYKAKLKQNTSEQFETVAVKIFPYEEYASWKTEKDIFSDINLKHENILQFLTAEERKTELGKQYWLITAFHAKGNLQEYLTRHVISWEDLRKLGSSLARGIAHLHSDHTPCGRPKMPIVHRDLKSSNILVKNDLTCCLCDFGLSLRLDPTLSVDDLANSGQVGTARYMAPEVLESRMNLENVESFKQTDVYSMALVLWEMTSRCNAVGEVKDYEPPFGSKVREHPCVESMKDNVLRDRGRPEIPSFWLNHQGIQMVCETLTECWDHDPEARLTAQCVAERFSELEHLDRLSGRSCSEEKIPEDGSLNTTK
NUAK2 (human), sequence (Q9H093 whole entry, looked up): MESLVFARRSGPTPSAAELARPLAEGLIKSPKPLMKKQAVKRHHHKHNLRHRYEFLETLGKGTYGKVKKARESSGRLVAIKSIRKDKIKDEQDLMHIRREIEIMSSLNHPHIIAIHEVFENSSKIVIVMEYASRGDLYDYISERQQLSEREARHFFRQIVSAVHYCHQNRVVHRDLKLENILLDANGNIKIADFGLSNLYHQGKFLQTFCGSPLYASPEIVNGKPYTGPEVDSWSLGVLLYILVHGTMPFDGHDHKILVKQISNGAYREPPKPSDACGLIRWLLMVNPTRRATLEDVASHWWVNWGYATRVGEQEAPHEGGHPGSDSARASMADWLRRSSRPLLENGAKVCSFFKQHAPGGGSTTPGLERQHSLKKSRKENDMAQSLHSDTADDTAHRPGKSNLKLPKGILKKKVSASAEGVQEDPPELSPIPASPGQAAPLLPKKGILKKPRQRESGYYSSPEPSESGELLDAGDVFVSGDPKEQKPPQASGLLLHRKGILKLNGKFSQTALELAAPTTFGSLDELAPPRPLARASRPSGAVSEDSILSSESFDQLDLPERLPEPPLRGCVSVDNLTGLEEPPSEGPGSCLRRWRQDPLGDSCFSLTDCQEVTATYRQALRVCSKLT
MAP3K3 (human), sequence (Q99759 whole entry, looked up): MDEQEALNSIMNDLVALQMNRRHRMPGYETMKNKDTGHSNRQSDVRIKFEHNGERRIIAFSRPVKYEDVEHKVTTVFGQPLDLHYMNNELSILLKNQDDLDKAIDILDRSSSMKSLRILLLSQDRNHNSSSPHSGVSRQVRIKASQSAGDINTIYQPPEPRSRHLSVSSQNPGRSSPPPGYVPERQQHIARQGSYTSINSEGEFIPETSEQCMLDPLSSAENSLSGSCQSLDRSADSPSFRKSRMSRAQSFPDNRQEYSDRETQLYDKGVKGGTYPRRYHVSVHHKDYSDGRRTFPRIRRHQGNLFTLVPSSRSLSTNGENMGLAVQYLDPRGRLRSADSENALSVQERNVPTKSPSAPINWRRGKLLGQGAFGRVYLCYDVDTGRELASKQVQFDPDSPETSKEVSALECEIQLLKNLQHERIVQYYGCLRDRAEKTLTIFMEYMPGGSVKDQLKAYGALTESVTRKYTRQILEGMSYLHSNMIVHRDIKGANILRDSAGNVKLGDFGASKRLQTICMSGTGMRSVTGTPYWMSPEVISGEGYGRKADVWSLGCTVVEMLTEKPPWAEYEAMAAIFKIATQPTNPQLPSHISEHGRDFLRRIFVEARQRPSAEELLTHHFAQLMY

| Compound | kinase still bound, per cent of control (ABL2 (human)) | kinase still bound, per cent of control (ACVR2A (human)) | kinase still bound, per cent of control (ALK (human)) | kinase still bound, per cent of control (CAMKK1 (human)) | kinase still bound, per cent of control (CDK17 (human)) | kinase still bound, per cent of control (CDK18 (human)) | kinase still bound, per cent of control (CLK3 (human)) | kinase still bound, per cent of control (EPHA2 (human)) | kinase still bound, per cent of control (EPHA6 (human)) | kinase still bound, per cent of control (ERBB2 (human)) | kinase still bound, per cent of control (ERN1 (human)) | kinase still bound, per cent of control (LRRK2 (human)) | kinase still bound, per cent of control (MAP2K1 (human)) | kinase still bound, per cent of control (MAP2K4 (human)) | kinase still bound, per cent of control (MAP3K11 (human)) | kinase still bound, per cent of control (MAP3K3 (human)) | kinase still bound, per cent of control (MAP3K6 (human)) | kinase still bound, per cent of control (MELK (human)) | kinase still bound, per cent of control (MST4 (human)) | kinase still bound, per cent of control (MYLK3 (human)) | also measured |
| --- | --- | --- | --- | --- | --- | --- | --- | --- | --- | --- | --- | --- | --- | --- | --- | --- | --- | --- | --- | --- | --- |
| N#C/C(=C1/Nc2ccccc2S1)c1ccnc(NCCc2cccnc2)n1 | 100% | 86% | 100% | 83% | 98% | 92% | 76% | 80% | 99% | 8.5% | 79% | 100% | 9.6% | 1.1% | 93% | 74% | 100% | 100% | 100% | 100% | kinase still bound, per cent of control (CSF1R (human)): 98%; kinase still bound, per cent of control (FES (human)): 100%; kinase still bound, per cent of control (NEK6 (human)): 100%; kinase still bound, per cent of control (NTRK1 (human)): 57%; kinase still bound, per cent of control (NTRK2 (human)): 56%; kinase still bound, per cent of control (NUAK1 (human)): 100%; kinase still bound, per cent of control (NUAK2 (human)): 100%; kinase still bound, per cent of control (PKMYT1 (human)): 95%; kinase still bound, per cent of control (PKN3 (M.tuberculosis)): 4.6%; kinase still bound, per cent of control (PRKCI (human)): 80%; kinase still bound, per cent of control (PTK6 (human)): 59%; kinase still bound, per cent of control (RPS6KA1 KD1 (human)): 83%; kinase still bound, per cent of control (RPS6KA4 KD1 (human)): 100%; kinase still bound, per cent of control (STK10 (human)): 100%; kinase still bound, per cent of control (TGFBR2 (human)): 100%; kinase still bound, per cent of control (TNIK (human)): 70%; kinase still bound, per cent of control [1]: 22%; kinase still bound, per cent of control (WEE1 (human)): 100%; kinase still bound, per cent of control (YES1 (human)): 81% |
| COc1cc2c(Nc3ccc(NC(=O)c4ccccc4)cc3)ncnc2cc1OCCCN1CCOCC1 | 82% | 100% | 26% | 76% | 94% | 75% | 100% | 84% | 85% | 0% | 74% | 73% | 0.1% | 100% | 20% | 18% | 100% | 42% | 44% | 100% | kinase still bound, per cent of control (CSF1R (human)): 16%; kinase still bound, per cent of control [2]: 8.8%; kinase still bound, per cent of control (FES (human)): 100%; kinase still bound, per cent of control (NEK6 (human)): 100%; kinase still bound, per cent of control (NTRK1 (human)): 16%; kinase still bound, per cent of control (NTRK2 (human)): 17%; kinase still bound, per cent of control (NUAK1 (human)): 92%; kinase still bound, per cent of control (NUAK2 (human)): 94%; kinase still bound, per cent of control (PKMYT1 (human)): 89%; kinase still bound, per cent of control (PKN3 (M.tuberculosis)): 37%; kinase still bound, per cent of control (PRKCI (human)): 94%; kinase still bound, per cent of control (PTK6 (human)): 0.8%; kinase still bound, per cent of control (RPS6KA1 KD1 (human)): 72%; kinase still bound, per cent of control (RPS6KA4 KD1 (human)): 100%; kinase still bound, per cent of control (STK10 (human)): 0.15%; kinase still bound, per cent of control (TGFBR2 (human)): 82%; kinase still bound, per cent of control (TNIK (human)): 51%; kinase still bound, per cent of control [1]: 84%; kinase still bound, per cent of control (WEE1 (human)): 100%; kinase still bound, per cent of control (YES1 (human)): 16% |
| CCCS(=O)(=O)Nc1ccc(F)c(C(=O)c2c[nH]c3ncc(Cl)cc23)c1F | 36% | 100% | 14% | 75% | 56% | 73% | 80% | 100% | 100% | 78% | 78% | 37% | 0.8% | 6.6% | 88% | 61% | 96% | 76% | 96% | 41% | kinase still bound, per cent of control [2]: 72%; kinase still bound, per cent of control (NEK6 (human)): 91%; kinase still bound, per cent of control (NTRK1 (human)): 100%; kinase still bound, per cent of control (NTRK2 (human)): 82%; kinase still bound, per cent of control (NUAK1 (human)): 100%; kinase still bound, per cent of control (NUAK2 (human)): 41%; kinase still bound, per cent of control (PKMYT1 (human)): 100%; kinase still bound, per cent of control (PKN3 (M.tuberculosis)): 46%; kinase still bound, per cent of control (PRKCI (human)): 100%; kinase still bound, per cent of control (PTK6 (human)): 0.5%; kinase still bound, per cent of control (RPS6KA1 KD1 (human)): 71%; kinase still bound, per cent of control (RPS6KA4 KD1 (human)): 85%; kinase still bound, per cent of control (STK10 (human)): 68%; kinase still bound, per cent of control (TGFBR2 (human)): 6.6%; kinase still bound, per cent of control (TNIK (human)): 24%; kinase still bound, per cent of control [1]: 24%; kinase still bound, per cent of control (WEE1 (human)): 100%; kinase still bound, per cent of control (YES1 (human)): 18% |
